{"source": "patent US7847058B2", "about": "“Method of modulating cell survival, differentiation and/or synaptic plasticity” (priority 2003, dated 2010)", "key": {"[1]": {"system": "cerebellar granule neurons (CGN)", "test": "Neurite outgrowth of CGN in co-culture with fibroblasts with (LBN) or without (LVN) NCAM expression", "type": "cell-based, rat", "conditions": "for NCAM-dependent neurite outgrowth of CGN in co-cultures of CGN and LBN-cells: fibroblasts with NCAM expression (LBN); for NCAM-independent neurite outgrowth of CGN in both cultures: single-neuron primary culture 24 h and co-culture with fibroblasts", "protocol": "(§1) Cerebellar granule neurons (CGN) were prepared from Wistar rat pups of postnatal day 3. Cerebellar tissue was dissected in modified Krebs-Ringer solution kept on ice, and treated as described for the hippocampal neurons above. All cell cultures were incubated at 37° C. in a humidified atmosphere containing 5% CO2. All animals were handled in accordance with the national guidelines for animal welfare. Primary cultures of CGN were plated at a density of 100,000 cells/cm^2 on poly-L-lysine coated 8-well permanox slides in Neurobasal-A medium (Gibco, BRL) supplemented with 2% (v/v) B27, 0.5% (v/v) glutamax, 100 U/ml penicillin, 100 μg/ml streptomycin and KCl, making the final concentration of KCl in the medium 40 mM. 24 hours after plating, cytosine-β-D-arabinofuranoside (Ara-C; Sigma-Aldrich) was added to a final concentration of 10 μM to avoid proliferation of glial cells, after which the neurons were allowed to differentiate for further six days at 37° C.\n(§2) Ig3 wt, Ig3mut1, and Ig3mut2 were tested at a concentration of 500 μg ml^−1.\n(§3) To evaluate the length of neurites of CGN, the neurons were fixed after 24 hours in culture with 4% (v/v) formaldehyde for 20 minutes and thereafter immunostained using primary rabbit antibodies against GAP-43 and Alexa Fluor secondary goat anti-rabbit antibodies. Images of at least 200 neurons for each group in each individual experiment were obtained systematically by using computer assisted fluorescence microscopy\n(§4) The total neurite length per cell was analyzed using the software ProcessLength (Rønn et al., 2000). Five independent experiments with the Ig3 module, its mutants, and the individual peptides were performed. In each experiment neurites from 200-300 cells were analyzed. In order to compare results of individual experiments and due to the inherently high variability of cell experiments, the data were normalized setting the difference between the average neurite length of PC12-E2 cells grown on NCAM-140-transfected and vector-transfected fibroblasts to 100%. Statistical evaluations were performed using a two-sided Student's t-test."}, "[2]": {"system": "cerebellar granule neurons (CGN)", "test": "Neurite outgrowth of CGN grown as single neurons in primary culture", "type": "cell-based, rat", "conditions": "24 h, different concentrations of the peptide in growth media", "protocol": "as §1, §3, §4"}, "[3]": {"system": "cerebellar granule neurons (CGN)", "test": "Neurite outgrowth of CGN in co-culture with fibroblasts with (LBN) or without (LVN) NCAM expression", "type": "cell-based, rat", "conditions": "co-cultures of PC12-E2 or CGN cells with fibroblasts expressing NCAM; cell type not specified"}, "[4]": {"system": "NCAM-expressing PC12-E2 cells", "test": "Neurite outgrowth of PC12-E2 cells grown on a confluent monolayer of NCAM-140- or vector-transfected L929 fibroblasts", "type": "cell-based", "conditions": "co-culture 24 h; for NCAM-induced neurite outgrowth of PC12-E2 cells grown on NCAM-140-transfected (LBN) fibroblasts: Ig3 wt, Ig3mut1, Ig3mut2 at 500 μg ml^−1", "protocol": "The NCAM-expressing pheochromocytoma PC12-E2 cell line (Wu and Bradshaw, 1995) was a gift from Dr. Klaus Seedorf, Hagedorn Research Institute, Denmark. The cells were grown in Dulbecco's Modified Eagle's Medium (DMEM) supplemented with 5% v/v fetal calf serum (FCS) and 10% v/v horse serum (HS), 100 U ml^−1 penicillin, 100 μg ml^−1 streptomycin (all from Gibco BRL) at 37° C. in a humidified atmosphere containing 5% CO2.\nThe fibroblastoid mouse cell line, L929 (European Cell Culture Collection), was stably transfected with the eukaryotic expression vector pHβ-Apr-1-neo (Gunning et al., 1987) containing a full-length cDNA encoding human 140 kDa NCAM-B or the vector alone. […] The cells were routinely grown at 37° C., 5% CO2 in DMEM supplemented with 10% v/v FCS, 100 U ml^−1 penicillin, and 100 μg ml^−1 streptomycin. For analysis of neurite outgrowth, PC12-E2 cells (8,000 cells per well) were seeded on top of a confluent monolayer of transfected fibroblastoid L929 cells in four-well LabTek Tissue Culture Chamber Slides (NUNC). The cells were grown for 24 h in DMEM supplemented with 1% v/v HS, before analysis.\nas §2\nTo evaluate the length of processes of PC12-E2 cells, the co-cultures were fixed in 4% w/v paraformaldehyde for 25 min. After washing in PBS, cells were blocked with 10% v/v goat serum (DAKO) for 30 min and subsequently incubated for 1 h at room temperature with a mouse monoclonal anti-Thy-1 antibody (Caltag Laboratories) (1:100 in PBS containing 10% v/v goat serum). After washing, cells were incubated for 1 h at room temperature with Alexa-Fluor 568™ goat anti-mouse IgG (Molecular Probes) (1:1000 in PBS containing 10% goat serum). All washes were performed for 10 min in PBS, and repeated three times.\nas §4"}, "[5]": {"system": "NCAM-mediated cell aggregation", "conditions": "Soroka et al., 2002; cited from earlier work"}, "[6]": {"test": "Dynamic light scattering (DLS) of recombinant proteins in solution", "type": "physicochemical", "conditions": "deglycosylated protein, 4 mg ml^−1, PBS pH 7.4, 18° C.", "protocol": "Measurements were performed using a DynaPro-MS/X instrument (Protein Solutions) at 18° C. The deglycosylated preparations of Ig1-2-3 (4 mg ml^−1), Ig1-2-3mut (4 mg ml^−1) and Ig3 (10 mg ml^−1) in PBS pH 7.4 were used to determine the molecular weight of the recombinant proteins in solution."}}, "note": "“Also recorded” adds a separate entry of the source.", "data": [{"molecule": "AFSPNGEKLSPNQ (H-AFSPNGEKLSPNQ-NH2) [P1-CD, represents the Ig1-to-Ig3 contact]", "values": [{"measurement": "NCAM-dependent neurite outgrowth of CGN in co-cultures of CGN and LBN-cells", "setting": "[1]", "value": "inhibits; also recorded: capable modulating"}, {"measurement": "NCAM-independent neurite outgrowth of CGN in both cultures", "setting": "[1]", "value": "does not affect"}, {"measurement": "neurite outgrowth (differentiation) of single CGN in primary culture", "setting": "[2]", "value": "did not stimulate"}]}, {"molecule": "DVRRGIKKTD (H-DVRRGIKKTD-NH2) [P2-CD, represents the Ig2-to-Ig3 contact, Ig2 module]", "values": [{"measurement": "neurite outgrowth (differentiation) of single CGN in primary culture", "setting": "[2]", "value": "very capable stimulators"}, {"measurement": "NCAM-stimulated neurite outgrowth in co-cultures", "setting": "[3]", "value": "did not affect"}]}, {"molecule": "GEISVGESKFFL (H-GEISVGESKFFL-NH2) [P1-B, covers the B β-strand of Ig1, represents the Ig1-to-Ig2 contact]", "values": [{"measurement": "NCAM-induced neurite outgrowth of PC12-E2 cells grown on NCAM-140-transfected (LBN) fibroblasts", "setting": "[4]", "value": "inhibitory effects comparable to the effect of Ig3 wt; also recorded: inhibited"}]}, {"molecule": "GRILARGEINFK (rat NCAM Ig2 fragment amino acid residues 172-182) [P2 peptide]", "values": [{"measurement": "effect on cell aggregation", "setting": "[5]", "value": "inhibitory effect"}]}, {"molecule": "KHIFSDDSSELTIRNVDKNDE (H-KHIFSDDSSELTIRNVDKNDE-NH2) [P3-DE, covers D and E β-strands and E-F loop of the Ig3 module]", "values": [{"measurement": "NCAM-induced neurite outgrowth of PC12-E2 cells grown on NCAM-140-transfected (LBN) fibroblasts", "setting": "[4]", "value": "inhibitory effects comparable to the effect of Ig3 wt; also recorded: inhibited"}]}, {"molecule": "QEFKEGEDAVIV (H-QEFKEGEDAVIV-NH2) [P2-A′B, represents the Ig2-to-Ig2 contact]", "values": [{"measurement": "NCAM-dependent neurite outgrowth of CGN in co-cultures of CGN and LBN-cells", "setting": "[1]", "value": "inhibits; also recorded: capable modulating"}, {"measurement": "NCAM-independent neurite outgrowth of CGN in both cultures", "setting": "[1]", "value": "does not affect"}, {"measurement": "neurite outgrowth (differentiation) of single CGN in primary culture", "setting": "[2]", "value": "did not stimulate"}]}, {"molecule": "QIRGIKKTD (H-QIRGIKKTD-NH2) [P2-EF, represents the Ig2-to-Ig3 contact, Ig2 module]", "values": [{"measurement": "neurite outgrowth (differentiation) of single CGN in primary culture", "setting": "[2]", "value": "very capable stimulators"}, {"measurement": "NCAM-stimulated neurite outgrowth in co-cultures", "setting": "[3]", "value": "did not affect"}]}, {"molecule": "SIHLKVFAK (H-SIHLKVFAK-NH2) [P3-G, C-terminal part of the G β-strand of Ig3]", "values": [{"measurement": "neurite outgrowth (differentiation) of single CGN in primary culture", "setting": "[2]", "value": "very capable stimulators"}, {"measurement": "NCAM-stimulated neurite outgrowth in co-cultures", "setting": "[3]", "value": "did not affect"}, {"measurement": "NCAM-induced neurite outgrowth of PC12-E2 cells grown on NCAM-140-transfected (LBN) fibroblasts", "setting": "[4]", "value": "inhibitory effects comparable to the effect of Ig3 wt; also recorded: inhibited"}]}, {"molecule": "TLVADADGFPEP (H-TLVADADGFPEP-NH2) [P3-B, control peptide covering the B β-strand and B-C loop of the Ig3 module, reference compound]", "values": [{"measurement": "NCAM-induced neurite outgrowth of PC12-E2 cells grown on NCAM-140-transfected (LBN) fibroblasts", "setting": "[4]", "value": "not active"}]}, {"molecule": "Ig3: recombinant Ig3 module of rat NCAM, residues 191-289, produced in P. pastoris (protein) EAEAYGRILARGEINFKDIQVIVNVPPTVQARQSIVNATANLGQSVTLVCDADGFPEPTMSWTKDGEPIENEEEDDEKHIFSDDSSELTIRNVDKNDEAEYVCI", "values": [{"measurement": "NCAM-induced neurite outgrowth of PC12-E2 cells grown on NCAM-140-transfected (LBN) fibroblasts", "setting": "[4]", "value": "clearly inhibits"}, {"measurement": "NCAM-induced neurite outgrowth of PC12-E2 cells grown on NCAM-140-transfected (LBN) fibroblasts", "setting": "[4]; listed as Ig3 wt", "value": "inhibitory effect"}, {"measurement": "neurite outgrowth of PC12-E2 cells grown on vector-transfected (LVN) fibroblasts", "setting": "[4]; NCAM-negative fibroblasts", "value": "does not affect"}]}, {"molecule": "Ig1-2-3: recombinant Ig1-2-3 fragment of rat NCAM, residues 1-289 (protein, rat NCAM fragment amino acid residues 20-308 and cloning artifacts) RVLQVDIVPSQGEISVGESKFFLCQVAGDAKDKDISWFSPNGEKLSPNQQRISVVWNDDDSSTLTIYNANIDDAGIYKCVVTAEDGTQSEATVNVKIFQKLMFKNAPTPQEFKEGEDAVIVCDVVSSLPPTIIWKHKGRDVILKKDVRFIVLSNNYLQIRGIKKTDEGTYRCEGRILARGEINFKDIQVIVNVPPTVQARQSIVNATANLGQSVTLVCDADGFPEPTMSWTKDGEPIENEEEDDEKHIFSDDSSELTIRNVDKNDEAEYVCIAENKAGEQDASIHLKVFAK", "values": [{"measurement": "molecular weight in solution by DLS (oligomeric state)", "setting": "[6]", "value": "~78", "unit": "kDa"}]}, {"molecule": "Ig1-2-3mut: Ig1-2-3 mutant containing the substitutions E11A, E16A, and K18A (protein) RVLQVDIVPSQGAISVGASAFFLCQVAGDAKDKDISWFSPNGEKLSPNQQRISVVWNDDDSSTLTIYNANIDDAGIYKCVVTAEDGTQSEATVNVKIFQKLMFKNAPTPQEFKEGEDAVIVCDVVSSLPPTIIWKHKGRDVILKKDVRFIVLSNNYLQIRGIKKTDEGTYRCEGRILARGEINFKDIQVIVNVPPTVQARQSIVNATANLGQSVTLVCDADGFPEPTMSWTKDGEPIENEEEDDEKHIFSDDSSELTIRNVDKNDEAEYVCIAENKAGEQDASIHLKVFAK", "values": [{"measurement": "molecular weight in solution by DLS (oligomeric state)", "setting": "[6]", "value": "~34", "unit": "kDa"}]}, {"molecule": "Ig3mut1: Ig3 mutant with substitutions R198A, D249G, E287A (E253A) (protein) EAEAYGRILARGEINFKDIQVIVNVPPTVQAAQSIVNATANLGQSVTLVCDADGFPEPTMSWTKDGEPIENEEEDDEKHIFSGDSSALTIRNVDKNDEAEYVCI", "values": [{"measurement": "NCAM-induced neurite outgrowth of PC12-E2 cells grown on NCAM-140-transfected (LBN) fibroblasts", "setting": "[4]", "value": "inactive"}]}]}
